Reference: patent US10791989B2, “Magnetic resonance imaging of poly-L-glutamate” (The Trustees of The University of Pennsylvania, priority 2013, dated 2020)

Columns and labels:
cathepsin B [1] = molecular target: T1, cathepsin B (Homo sapiens, UniProt P07858); assay: CEST imaging of phantoms (glutamate, PLG, PLG+cathepsin B) on 7T whole-body scanner; assay type: biochemical; conditions: phantom, room temperature; for CEST contrast at 3 ppm: substance alone
Method: (§1) Both the CEST imaging and MRS were performed.

cathepsin B [2] = molecular target: T1, cathepsin B; assay: Proton MRS of phantoms (PLG+cathepsin B) on 7T whole-body scanner; assay type: biochemical; conditions: phantom with PLG and cathepsin B
Method: as §1

F98 tumor cells = conditions: after addition of PLG vs without PLG, 9.4 T
Method: as §1
F98 cell line is known to be aggressive and expresses cathepsin B and other proteases.

Row | MR spectrum change with cathepsin B (cathepsin B [2]) | CEST contrast at 3 ppm after addition of cathepsin B (cathepsin B [1]; PLG with cathepsin B) | Compound | CEST contrast at 3 ppm (cathepsin B [1]) | increase in CEST contrast at 3 ppm (F98 tumor cells) [%]
1 |  |  | N[C@@H](CCC(=O)O)C(=O)O [Glu, glutamate] | strong CEST contrast | 
2 | cleavage of 2.3 and 4.1 ppm peaks | appreciable CEST contrast | Poly(L-glutamic acid) [PLG] | No CEST contrast | −16
